Results taken from the supplement of paper PMC10307832.

Legend:
Assay in all cases: relative viability (nuclei count vs DMSO), 5 days (fraction); higher = more cells survive
KN-93 + Dasatinib = compound: CN(C/C=C/C1=CC=C(C=C1)Cl)CC2=CC=CC=C2N(CCO)S(=O)(=O)C3=CC=C(C=C3)OC [KN-93] + Cc1nc(Nc2ncc(C(=O)Nc3c(C)cccc3Cl)s2)cc(N2CCN(CCO)CC2)n1 [Dasatinib] (partner 0.075 µM)
Method in brief: (§1)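 Lung cancer cell lines, seeded in 1536-well plates, were treated the following day by pin tool with a single drug or with five library-drug doses (not always all listed) in √10 steps on top of a fixed anchor-drug dose. Cells were fixed and nuclei stained in one step after 5 days, and nuclei were counted. Relative viability is the nuclei count for treated wells divided by that for vehicle wells, reported as medians of duplicate plates.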

KN-93 + Crizotinib = compound: CN(C/C=C/C1=CC=C(C=C1)Cl)CC2=CC=CC=C2N(CCO)S(=O)(=O)C3=CC=C(C=C3)OC [KN-93] + C[C@@H](Oc1cc(-c2cnn(C3CCNCC3)c2)cnc1N)c1c(Cl)ccc(F)c1Cl [Crizotinib] (partner 1 µM)
Method in brief: as §1

KN-93 + Alpelisib = compound: CN(C/C=C/C1=CC=C(C=C1)Cl)CC2=CC=CC=C2N(CCO)S(=O)(=O)C3=CC=C(C=C3)OC [KN-93] + Cc1nc(NC(=O)N2CCC[C@H]2C(N)=O)sc1-c1ccnc(C(C)(C)C(F)(F)F)c1 [Alpelisib] (partner 2 µM)
Method in brief: as §1

KN-93 + Olaparib = compound: CN(C/C=C/C1=CC=C(C=C1)Cl)CC2=CC=CC=C2N(CCO)S(=O)(=O)C3=CC=C(C=C3)OC [KN-93] + O=C(c1cc(Cc2n[nH]c(=O)c3ccccc23)ccc1F)N1CCN(C(=O)C2CC2)CC1 [Olaparib] (partner 8 µM)
Method in brief: as §1

KN-93 = compound: CN(C/C=C/C1=CC=C(C=C1)Cl)CC2=CC=CC=C2N(CCO)S(=O)(=O)C3=CC=C(C=C3)OC [KN-93]
Method in brief: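 After an overnight hold at 37 °C, lung cancer cell lines in 1536-well plates were pinned with five library-drug doses (not always all listed), each √10 from the next, on vehicle-anchored plates. The cells stayed 5 days without fresh medium, then a one-step fix, permeabilisation and Hoechst stain preceded 4× imaging and MetaXpress nuclear counts. A plate passed only with control CV under 25% and at least one doubling. Viability is the median, over plates, of treated-well nuclei relative to vehicle-well nuclei.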

Row | Cell Line | relative viability (KN-93 + Dasatinib; first compound 0.08 µM) | relative viability (KN-93 + Dasatinib; first compound 0.253 µM) | relative viability (KN-93 + Dasatinib; first compound 2.53 µM) | relative viability (KN-93 + Dasatinib; first compound 8 µM) | relative viability (KN-93 + Crizotinib; first compound 0.08 µM) | relative viability (KN-93 + Crizotinib; first compound 0.253 µM) | relative viability (KN-93 + Crizotinib; first compound 2.53 µM) | relative viability (KN-93 + Crizotinib; first compound 8 µM) | relative viability (KN-93 + Alpelisib; first compound 0.08 µM) | relative viability (KN-93 + Alpelisib; first compound 0.253 µM) | relative viability (KN-93 + Alpelisib; first compound 2.53 µM) | relative viability (KN-93 + Alpelisib; first compound 8 µM) | relative viability (KN-93 + Olaparib; first compound 0.08 µM) | relative viability (KN-93 + Olaparib; first compound 0.253 µM) | relative viability (KN-93 + Olaparib; first compound 2.53 µM) | relative viability (KN-93 + Olaparib; first compound 8 µM) | relative viability (KN-93; 0.08 µM) | relative viability (KN-93; 0.253 µM) | relative viability (KN-93; 2.53 µM) | relative viability (KN-93; 8 µM)
1 | 201T | 0.604 | 0.421 | 0.533 | 0.342 | 1.01 | 1.05 | 1.01 | 0.973 | 1.17 | 0.966 | 1.01 | 0.935 | 0.847 | 0.857 | 0.904 | 0.706 | 1.03 | 0.85 | 0.958 | 0.684
2 | A549 | – | – | – | – | 0.847 | 1.05 | 0.944 | 0.28 | 0.717 | 0.914 | 0.849 | 0.546 | 0.303 | 0.336 | 0.65 | 0.0828 | 0.79 | 1.06 | 1.26 | 0.553
3 | A-427 | 0.71 | 0.668 | 0.672 | 0.324 | 0.852 | 0.943 | 0.798 | 0.436 | 1.07 | 1.18 | 1.08 | 0.975 | 0.783 | 0.559 | 0.765 | 0.51 | 1.03 | 1.21 | 0.976 | 0.531
4 | ABC-1 | 0.585 | 0.476 | 0.468 | 0.203 | 1.05 | 1.28 | 0.498 | 0.219 | 0.893 | 1.27 | 1.13 | 0.715 | 0.785 | 0.687 | 0.978 | 0.339 | 0.999 | 0.99 | 0.773 | 0.312
5 | BEN | 0.307 | 0.319 | 0.307 | 0.266 | – | 1.13 | 1.02 | 0.67 | – | 1.37 | 1.06 | 0.806 | 1.13 | 1.19 | 1.06 | 0.713 | 0.881 | 0.969 | 1.08 | 0.688
6 | CAL-12T | 0.358 | 0.286 | 0.509 | 0.139 | 0.623 | 0.834 | 0.531 | 0.339 | 0.859 | 1.44 | 1.57 | 1.06 | 0.772 | 0.777 | 0.788 | 0.641 | 1.09 | 0.983 | 1.09 | 0.744
7 | COR-L23 | 0.505 | 0.45 | 0.595 | 0.354 | 0.697 | 0.764 | 0.673 | 0.455 | 0.743 | 1.01 | 0.745 | 0.601 | 0.298 | 0.338 | 0.357 | 0.327 | 0.848 | 1.09 | 1.08 | 0.665
8 | COR-L 105 | 0.363 | 0.277 | 0.302 | 0.239 | 0.696 | 0.873 | 0.807 | 0.436 | 0.866 | 0.991 | 0.918 | 0.74 | 0.722 | 0.499 | 0.545 | 0.661 | 1.02 | 0.932 | 0.808 | 0.682
9 | ChaGo-K-1 | 0.555 | 0.662 | 0.534 | 0.341 | 1.12 | 1.23 | 1.11 | 0.722 | – | – | – | – | 0.388 | 0.402 | 0.442 | 0.38 | 0.887 | 1.14 | 0.999 | 0.72
10 | EKVX | 0.42 | 0.429 | 0.358 | 0.389 | 0.642 | 0.995 | 0.81 | 0.719 | 0.728 | 0.845 | 1.02 | 0.692 | 0.761 | 0.558 | 0.802 | 0.669 | 0.839 | 0.768 | 1.04 | 0.691
11 | EMC-BAC-2 | 0.299 | 0.366 | 0.3 | 0.272 | 0.773 | 0.792 | 0.772 | 0.573 | 0.683 | 0.732 | 0.928 | 0.676 | 0.498 | 0.441 | 0.507 | 0.431 | 1.05 | 1.04 | 1.08 | 0.794
12 | EPLC-272H | 0.32 | 0.452 | 0.274 | 0.206 | 1.05 | 1.01 | 1.04 | 0.661 | 0.947 | 1.02 | 1.04 | 0.792 | 0.466 | 0.681 | 0.913 | 0.267 | 0.899 | 0.965 | 0.92 | 0.59
13 | H3255 | 0.366 | 0.343 | 0.511 | 0.341 | 0.995 | 0.952 | 0.48 | 0.623 | 0.664 | 0.788 | 0.631 | 0.532 | 0.519 | 0.621 | 0.523 | 0.485 | 1.03 | 0.992 | 0.969 | 0.666
14 | HARA | 0.246 | 0.283 | 0.248 | 0.104 | 1.04 | 1.51 | 0.946 | 0.51 | 0.811 | 0.775 | 0.705 | 0.471 | 0.524 | 0.584 | 0.718 | 0.336 | 0.871 | 0.943 | 0.827 | 0.565
15 | HCC-15 | 0.59 | 0.535 | 0.581 | 0.447 | 0.664 | 0.961 | 0.795 | 0.682 | 0.816 | 1.09 | 0.884 | 0.744 | 0.658 | 0.731 | 0.719 | 0.522 | 0.862 | 1.03 | 1.08 | 0.893
16 | HCC-44 | – | – | – | – | 0.732 | 0.785 | 0.858 | 0.502 | 0.775 | 0.746 | 0.99 | 0.549 | 0.935 | 0.959 | 0.994 | 0.88 | 1.02 | 0.912 | 1.12 | 0.764
